According to patent US20260216368A1, “BIS-ESTER AND AMIDE CATIONIC LIPIDS” (SANOFI PASTEUR INC., priority 2022, published 2026):

What was measured:
[1] = DLS size and polydispersity of hEPO mRNA lipid nanoparticles; type: physicochemical; details: Table 3, further LNPs; hEPO mRNA LNP, Cationic Lipid:DMG-PEG2000:Cholesterol:DOPE=40:1.5:28.5:30, N/P ratio 4, Process A
Method: The lipid nanoparticles in the examples of the present invention were formulated using Process A of WO 2018/089801 (see, e.g., Example 1 and FIG. 1 of WO 2018/089801). Process A (“A”) relates to a conventional method of encapsulating mRNA by mixing mRNA with a mixture of lipids, without first pre-forming the lipids into lipid nanoparticles. In an exemplary process, an ethanol lipid solution and an aqueous buffered solution of mRNA were prepared separately. A solution of mixture of lipids (cationic lipid, helper lipids, zwitterionic lipids, PEG lipids etc.) was prepared by dissolving lipids in ethanol. The mRNA solution was prepared by dissolving the mRNA in citrate buffer. Then, these two solutions were mixed using a pump system. In some instances, the two solutions were mixed using a gear pump system. In certain embodiments, the two solutions were mixing using a ‘T’ junction (or “Y” junction). The mixture was then purified by diafiltration with a TFF process. The resultant formulation concentrated and stored at 2-8° C. until further use.
(§1) Lipid nanoparticle formulations of Table 1 were prepared by Process A. More specifically, an ethanolic solution of a mixture of lipids including DMG-PEG-2000, cationic lipid, cholesterol, and phosphatidylethanolamine (DOPE) in a ratio of 1.5:40:28.5:30 were combined with an aqueous buffered solution (1 mM Citrate and 150 mM NaCl) of target mRNA at an acidic pH (4.5) under controlled conditions to yield a dispersion of uniform lipid nanoparticles (LNPs). Upon ultrafiltration and diafiltration into the final buffer, the resulting nanoparticle dispersions were diluted to required concentration using the final buffer (10% Trehalose), sterile filtered and stored frozen at −80° C. until use.
All of the lipid nanoparticle formulations comprised hEPO mRNA and the different lipids in following mol % ratios: Cationic Lipid: DMG-PEG2000; Cholesterol:DOPE=40:1.5:28.5:30.
DLS measurements were performed using a Malvern Instruments Zetasizer with a backscattering detector angle of 173° and a 4-mW, 633-nm He—Ne laser (Worcestershire, UK). The samples were analyzed by diluting in 10% Trehalose and measuring the size and Poly dispersity Index (PDI) in an optical grade polystyrene cuvette.
The following lipid nanoparticles were formulated according to Example 51.
as §1, with “Table 3” for “Table 1”

[2] = RiboGreen assay, % encapsulation of mRNA in lipid nanoparticles; type: physicochemical; details: Table 3, further LNPs; hEPO mRNA LNP, Cationic Lipid:DMG-PEG2000:Cholesterol:DOPE=40:1.5:28.5:30, N/P ratio 4, Process A
Source text: In embodiments, the lipid nanoparticle encapsulates a nucleic acid, optionally an mRNA encoding a peptide or protein. In embodiments, the peptide is an antigen. In embodiments, the lipid nanoparticle encapsulates an mRNA encoding a peptide or protein. As used herein, the phrase “encapsulation percentage” refers to the fraction of therapeutic agent (e.g. mRNA) that is effectively encapsulated within a liposomal-based vehicle (e.g. a lipid nanoparticle) relative to the initial fraction of therapeutic agent present in the lipid phase. In embodiments, the lipid nanoparticles have an encapsulation percentage for mRNA of at least 50%. In embodiments, the lipid nanoparticles have an encapsulation percentage for mRNA of at least 55%. In embodiments, the lipid nanoparticles have an encapsulation percentage for mRNA of at least 60%. In embodiments, the lipid nanoparticles have an encapsulation percentage for mRNA of at least 65%. In embodiments, the lipid nanoparticles have an encapsulation percentage for mRNA of at least 70%. In embodiments, the lipid nanoparticles have an encapsulation percentage for mRNA of at least 75%. In embodiments, the lipid nanoparticles have an encapsulation percentage for mRNA of at least 80%. In embodiments, the lipid nanoparticles have an encapsulation percentage for mRNA of at least 85%. In embodiments, the lipid nanoparticles have an encapsulation percentage for mRNA of at least 90%. In embodiments, the lipid nanoparticles have an encapsulation percentage for mRNA of at least 95%. In embodiments, the encapsulation percentage is calculated by performing the Ribogreen assay (Invitrogen) with and without the presence of 0.1% Triton-X 100.
The RiboGreen Assay is a fluorescence-based method for the determination of mRNA concentration (Total and Free) and % encapsulation using Quant-iT™ RiboGreen® RNA reagent in mRNA containing lipid nanoparticles.
• To each of the standards (Blank, mRNA-1, mRNA-2. mRNA-3, mRNA-4, mRNA-5) and Samples (free mRNA and total mRNA), add 1.0 mL of 200-fold Ribogreen Reagent Solution and gently mix by inversion. This is a 2× Dilution. • Add 200 μL of each standard and sample in triplicate using the reverse pipetting technique in a 96-well Costar Black with Clear Background Plate. Ensure no bubbles are present in the plate before the fluorescence reading. • Read the fluorescence signal using the below instrument parameters: • Read Type: Fluorescence, Bottom Read • Excitation: 485 nm; Cut-off: 515 nm; Emission: 530 nm • Plate Type: 96-well Costar Black with Clear Background
The average fluorescence from each calibration standard is plotted against the concentration to generate a linear calibration curve using the MS Excel software. The coefficient of determination (R^2) of calibration curve must be R^2>0.99.
[formula] • Where, • Y=average fluorescence value • m: slope • x: concentration (pg/mL) • c: y-intercept • Using the linear equation, calculate the concentration of free and total mRNA concentration in the test sample by replacing the y value in the equation with the average fluorescence value of each respective sample • Once the concentration is determined, the actual concentration in the sample can be back-calculated by multiplying the concentration in the test sample with the dilution factor (DF) as follows:
[formula] • Concentration of encapsulated mRNA can be determined by subtracting the concentration of free mRNA from the total mRNA. • % Encapsulation can then be calculated by taking the ratio of encapsulated mRNA over total mRNA and multiplying the result with 100.

[3] = test system: Human erythropoietin (hEPO) levels in sera; assay: Delivery of hEPO mRNA by intramuscular administration of lipid nanoparticles; serum hEPO by ELISA; type: in vivo, Mouse; details: serum, 6 hours post dose, 0.1 μg/animal hEPO mRNA LNP, IM, mice, n=4
Method: WO2022/099003 A1 describes an in vivo assay for intramuscular administration (e.g. on page 46, paragraph [00206]). Further details of the intramuscular experiment performed in this application are provided below.
Treatment Regimen: On Day 1, animals from Groups 1-8 were dosed via intramuscular injection while under light isoflurane anesthesia according to the study design table above. Animals in Groups 2-8 were injected with EPO in the right leg only. Group 1 animals received saline control.
Interim Sample Collections: Interim whole blood (~50 μL) was collected by tail snip or saphenous vein at 6 hours post dose administration (±5%). Blood samples were collected into serum separator tubes, allowed to clot at room temperature for at least 10 minutes, centrifuged at ambient temperature at minimum 1000 g for 10 minutes and the serum was extracted. All serum samples were stored at nominally −70° C. until analysis hEPO by the Testing Facility. The results of the EPO analysis were included in the Data Submission.
Terminal Blood Collections: Whole blood was collected via cardiac puncture into serum separator tube, allowed to clot at room temperature for at least 10 minutes, centrifuged at ambient temperature at minimum 1000 g for 10 minutes and the serum was extracted. Serum samples were stored at nominally −70° C. until analyzed for hEPO by the Test Facility.
ELISA Assay: Human erythropoietin (hEPO) levels in sera samples were determined by ELISA kit (R&D systems, Cat #DEP-00) according to the manufactory instruction and the results were included in the Data Submission. The “shaker” protocol was used. The serum samples were diluted between 1:40 and 1:100.
The ability of the further exemplary lipid nanoparticles in Example 54 to deliver hEPO mRNA by intramuscular administration was tested in accordance with the experimental protocol set out in Example 52.

SMILES | PDI [1] | Size (nm) [1] [nm] | Encapsulation Percentage (%) [2] [%] | hEPO 6 Hr (ng/mL) Mean ([3]; fourth occasion) [ng/mL] | hEPO 6 Hr (ng/mL) Mean ([3]; second occasion) [ng/mL] | hEPO 6 Hr (ng/mL) Mean ([3]; fifth occasion) [ng/mL] | hEPO 6 Hr (ng/mL) Mean ([3]; first occasion) [ng/mL] | hEPO 6 Hr (ng/mL) Mean ([3]; third occasion) [ng/mL]
CCCCCCCCCCC(O)CN(CCCOC(=O)[C@H](CCc1ccc(O)cc1)NC(=O)CCCN(CC(O)CCCCCCCCCC)CC(O)CCCCCCCCCC)CC(O)CCCCCCCCCC (stereo partly drawn) [Compound C, 3-[bis(2-hydroxydodecyl)amino]propyl (S)-2-{4-[bis(2-hydroxydodecyl)amino]butyrylamino}-4-(p-hydroxyphenyl)butyrate] | 0.093 | 108 | 82 | 37.2 |  |  |  | 
CCCCCCCCCCC(O)CN(CCCOC(=O)[C@H](Cc1c[nH]c2ccccc12)NC(=O)CCCN(CC(O)CCCCCCCCCC)CC(O)CCCCCCCCCC)CC(O)CCCCCCCCCC (stereo partly drawn) [Compound CI, 3-(bis(2-hydroxydodecyl)amino)propyl (4-(bis(2-hydroxydodecyl)amino)butanoyl)-L-tryptophanate] | 0.155 | 135 | 85 |  | 40.5 |  |  | 
CCCCCCCCCCC(O)CN(CCCOC(=O)N[C@@H](Cc1c[nH]cn1)C(=O)OCCCN(CC(O)CCCCCCCCCC)CC(O)CCCCCCCCCC)CC(O)CCCCCCCCCC (stereo partly drawn) [Compound CIII, 3-(bis(2-hydroxydodecyl)amino)propyl ((3-(bis(2-hydroxydodecyl)amino)propoxy)carbonyl)-L-histidinate] | 0.126 | 93 | 91 | 15.4 |  |  |  | 
CCCCCCCCCCCOC(=O)CCCC(O)CN(CCCCN(C)C(=O)CN(C)CC(=O)N(C)CCCCN(CC(O)CCCCCC(=O)OC(CCCCCCCC)CCCCCCCC)CC(O)CCCC(=O)OCCCCCCCCCCC)CC(O)CCCCCC(=O)OC(CCCCCCCC)CCCCCCCC (stereo not drawn) [Compound LXXVII, di(heptadecan-9-yl) 7,27-dihydroxy-9,25-bis(2-hydroxy-6-oxo-6-(undecyloxy)hexyl)-14,17,20-trimethyl-15,19-dioxo-9,14,17,20,25-pentaazatritriacontanedioate] | 0.137 | 114 | 99 |  |  | 45.6 |  | 
CCCCCCCCCCC(O)CN(CCCNC(=O)CC(C)(C)CC(=O)NCCCN(CC(O)CCCCCCCCCC)CC(O)CCCCCCCCCC)CC(O)CCCCCCCCCC (stereo not drawn) [Compound LXXXVII, N,N′-bis({3-[bis(2-hydroxydodecyl)amino]propyl})-3,3-dimethylpentanediamide] | 0.111 | 123 | 88 |  |  |  | 29.1 | 
CCCCCCCCCCC(=O)OCCCCC(O)CN(CCCCNC(=O)CC(C)(O)CC(=O)NCCCCN(CC(O)CCCCCOC(=O)C(CCCCCCCC)CCCCCCCC)CC(O)CCCCOC(=O)CCCCCCCCCC)CC(O)CCCCCOC(=O)C(CCCCCCCC)CCCCCCCC (stereo not drawn) [Compound XCIV] | 0.085 | 138 | 96 |  |  | 36.4 |  | 
CCCCCCCCCCC(O)CN(CCCOC(=O)[C@H](Cc1ccc(O)cc1)NC(=O)CCCN(CC(O)CCCCCCCCCC)CC(O)CCCCCCCCCC)CC(O)CCCCCCCCCC (stereo partly drawn) [Compound XCIX, 3-(bis(2-hydroxydodecyl)amino)propyl (4-(bis(2-hydroxydodecyl)amino)butanoyl)-L-tyrosinate] |  |  |  |  |  |  |  | 38.1
CCCCCCCCCCC(O)CN(CCCOC(=O)[C@H](Cc1ccccc1)NC(=O)CCCN(CC(O)CCCCCCCCCC)CC(O)CCCCCCCCCC)CC(O)CCCCCCCCCC (stereo partly drawn) [Compound XCV, 3-[bis(2-hydroxydodecyl)amino]propyl (S)-2-{4-[bis(2-hydroxydodecyl)amino]butyrylamino}-3-phenylpropionate] | 0.191 | 94 | 66 | 22.4 |  |  |  | 
CCCCCCCCCCC(O)CN(CCCOC(=O)[C@H](CCc1ccccc1)NC(=O)CCCN(CC(O)CCCCCCCCCC)CC(O)CCCCCCCCCC)CC(O)CCCCCCCCCC (stereo partly drawn) [Compound XCVI, 3-(bis(2-hydroxydodecyl)amino)propyl (2S)-2-(4-(bis(2-hydroxydodecyl)amino)butanamido)-4-phenylbutanoate] | 0.166 | 123 | 85 | 37.3 |  |  |  | 
